One data set concerns the target T1, Protein phosphatase 1A (Homo sapiens, UniProt P35813).
T1 sequence (P35813 whole entry): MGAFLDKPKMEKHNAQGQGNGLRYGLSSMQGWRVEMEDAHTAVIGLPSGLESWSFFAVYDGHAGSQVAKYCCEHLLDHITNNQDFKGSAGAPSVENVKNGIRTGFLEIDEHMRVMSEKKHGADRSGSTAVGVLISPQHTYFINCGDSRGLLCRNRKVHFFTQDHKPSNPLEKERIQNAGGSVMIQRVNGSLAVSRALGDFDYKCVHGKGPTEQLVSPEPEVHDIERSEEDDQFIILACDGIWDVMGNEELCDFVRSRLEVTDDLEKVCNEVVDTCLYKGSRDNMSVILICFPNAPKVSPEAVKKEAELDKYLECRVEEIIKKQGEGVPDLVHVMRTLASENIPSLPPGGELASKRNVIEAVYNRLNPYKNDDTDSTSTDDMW
Put plainly: Inhibition of recombinant human PPM1A using pNPP as substrate preincubated for 15 mins followed by substrate addition measured after 20 mins by absorbance based assay.

Data set [1] in a line: Cytotoxicity against human THP-1 cells by resazurin dye based assay. It is filed as toxicity, cell-based.
Data set [2] is described as follows: Cytotoxicity against human Caco-2 cells by resazurin dye based assay. The format is toxicity, cell-based. (Alamar Blue is a resazurin reagent that responds to reducing activity.)

One may read the IC50 as the midpoint of a concentration-inhibition curve. For `CC(C)COc1ccc2c(c1)c[n+](CCO)c1ccc(F)cc21`, the IC50 on Protein phosphatase 1A is over 20 µM. Take `COc1ccc2c(c1)c[n+](CCO)c1ccc(Cl)cc21`: the IC50 on Protein phosphatase 1A is over 20 µM. For `COc1ccc2cc[n+](CCO)cc2c1`, the half-inhibitory concentration (IC50) at Protein phosphatase 1A was over 20 µM. For the molecule `COc1ccc2c(c1)c[n+](C(CO)CO)c1ccc(F)cc21`, on Protein phosphatase 1A, the concentration for half-maximal inhibition (IC50) was over 20 µM. Regarding `CCOc1ccc2c(c1)c1ccc(OC)cc1c[n+]2CCO`, the IC50 at Protein phosphatase 1A was over 20 µM. Regarding `COc1ccc2c(c1)c[n+](CCO)c1ccccc21`, on Protein phosphatase 1A, the 50% inhibitory concentration (IC50) was over 20 µM. The CC50 is the concentration at which the toxic effect on the cells reaches its halfway point. Read a low CC50 as harm at low concentration. Consider `COc1ccc2c(c1)c[n+](CCO)c1ccc(Br)cc21`, for which the half-maximal inhibitory concentration (IC50) on Protein phosphatase 1A amounted to 4.51 µM. Moreover, the CC50 amounted to 68 µM in data set [1] and 185 µM in data set [2]. `COC(=O)c1cccc(-c2cc3c(cc2OC)c[n+](CCO)c2ccc(F)cc32)c1`: the IC50 on Protein phosphatase 1A was over 20 µM. As for `COc1ccc2c(c1)c[n+](NCCO)c1ccc(F)cc21`, the IC50 at Protein phosphatase 1A was over 10 µM. Same read-out and setting: the figure for `COc1ccc2c(c1)c[n+](CCO)c1ccc(C)cc21` is over 20 µM.

With `COc1cc2c[n+](CCO)c3ccc(F)cc3c2cc1-c1ccc(F)cc1`, at Protein phosphatase 1A, the IC50 was over 20 µM. For `OCC[n+]1cc2cc(F)ccc2c2cc(F)ccc21`, the IC50 on Protein phosphatase 1A is over 20 µM.

As to `OCC[n+]1cc2ccccc2c2cc(F)ccc21`, the IC50 at Protein phosphatase 1A is over 20 µM.

Consider `COc1cc2c[n+](CCO)c3ccc(F)cc3c2cc1-c1ccc(NC(=O)OC(C)(C)C)cc1`, for which the half-inhibitory concentration (IC50) at Protein phosphatase 1A is over 20 µM. With `OCC[n+]1cccc2cc(F)ccc21`, at Protein phosphatase 1A, the half-inhibitory concentration (IC50) was over 20 µM. For `COc1ccc2c(c1)c[n+](C(C)CO)c1ccc(F)cc21` (configuration not stated), the IC50 on Protein phosphatase 1A was over 10 µM. In the case of `CCCCOc1ccc2c(c1)c[n+](CCO)c1ccc(F)cc21`, the IC50 at Protein phosphatase 1A turned out to be 3.56 µM. With `COc1cc2c[n+](CCO)c3ccc(F)cc3c2cc1I`, on Protein phosphatase 1A, the IC50 was over 20 µM. As for `COc1cc2c[n+](CCO)c3ccc(F)cc3c2cc1-c1ccc2c(c1)OCO2`, at Protein phosphatase 1A, the IC50 is over 20 µM. The same measure, in the same setting: the figure for `COc1ccc2c(c1)c[n+](CCCCO)c1ccc(F)cc21` is over 20 µM.

The values above are taken from ChEMBL document CHEMBL5523733, “Small Molecule Targeting PPM1A Activates Autophagy for Mycobacterium tuberculosis Host-Directed Therapy” (J Med Chem, 2024).
